# Results: PMC2725396 (Clinical cancer research : an official journal of the …, 2008)
# “And” between values parts separate entries of the source, which are not always exact repeats. Identical values can stand only once. Like-named read-outs stand apart in the source and are kept apart here.
# Key:
# BCRP [1] = molecular target: T1, BCRP (Homo sapiens, UniProt Q9UNQ0); experiment: Topotecan accumulation by flow microfluorimetry in MDA-MB-231/BCRP cells; type: cell-based
# T1 sequence (Q9UNQ0 1-655): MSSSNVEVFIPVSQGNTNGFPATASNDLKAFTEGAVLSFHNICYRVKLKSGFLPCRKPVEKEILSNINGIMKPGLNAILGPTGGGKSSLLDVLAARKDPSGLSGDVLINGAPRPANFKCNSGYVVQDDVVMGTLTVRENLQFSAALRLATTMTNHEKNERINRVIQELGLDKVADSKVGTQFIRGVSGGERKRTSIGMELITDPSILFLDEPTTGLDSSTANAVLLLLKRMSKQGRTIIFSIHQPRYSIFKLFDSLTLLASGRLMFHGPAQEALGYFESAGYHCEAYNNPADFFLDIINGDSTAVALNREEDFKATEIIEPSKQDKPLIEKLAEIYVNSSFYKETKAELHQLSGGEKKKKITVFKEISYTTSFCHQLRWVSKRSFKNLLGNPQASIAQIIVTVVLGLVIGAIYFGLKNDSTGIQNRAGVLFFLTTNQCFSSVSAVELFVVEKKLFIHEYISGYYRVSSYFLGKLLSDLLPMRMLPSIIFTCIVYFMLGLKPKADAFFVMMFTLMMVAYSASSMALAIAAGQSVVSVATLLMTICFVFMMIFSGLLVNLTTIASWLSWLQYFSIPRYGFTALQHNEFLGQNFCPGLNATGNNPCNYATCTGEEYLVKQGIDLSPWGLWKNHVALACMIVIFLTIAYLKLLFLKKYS
# [2] = system: MDA-MB-231/empty vector cells; experiment: Topotecan accumulation by flow microfluorimetry in MDA-MB-231/empty vector cells; type: cell-based; conditions: MDA-MB-231 cells transfected with empty vector
# [3] = system: MDA-MB-231/empty vector cells; experiment: Clonogenic assay with topotecan plus lapatinib in MDA-MB-231/empty vector cells; type: cell-based; conditions: MDA-MB-231 cells transfected with empty vector, 1 µmol/L lapatinib, 24 h
# Pgp [4] = molecular target: Pgp (Cricetulus griseus, UniProt P21448); experiment: Topotecan accumulation by flow microfluorimetry in CH^RC5 cells; type: cell-based, Chinese hamster; conditions: 1,000 nmol/L lapatinib, n = 3
# AuxB1 cells = experiment: Topotecan accumulation by flow microfluorimetry in AuxB1 cells; type: cell-based, Chinese hamster; conditions: AuxB1 cells (lower Pgp), compared with CH^RC5
# [5] = system: BT474 human breast carcinoma xenografts; experiment: BT474 xenograft tumor growth inhibition; type: in vivo, CB-17 SCID mice
# [6] = system: patients with advanced solid tumors; experiment: Phase I trial: MTD, DLTs and adverse events; type: in vivo, human
# [7] = type: in vivo, human; conditions: fit of CLNRF ratio versus lapatinib steady-state Cmin, ±35%
# Pgp [8] = conditions: cited from earlier work
# BCRP [9] = molecular target: T1, BCRP; conditions: read-out: in vitro Ki for inhibition of BCRP; cited from earlier work
# [10] = cited from earlier work
# [11] = single agent, cited from earlier work
# [12] = Phase I trial: plasma pharmacokinetics of topotecan and lapatinib; conditions: for AUC(0-t) / Cmax / Topotecan CLp: n = 9, geometric mean and 95% CI; for Cmax: Topotecan Cmax; for half-life / Topotecan CLNRF / Topotecan Vss: geometric mean and 95% CI; for Topotecan CLNRF: CLp minus CLCR
# [13] = geometric least squares mean ratio and 90% CI
# Sequence of Pgp (Cricetulus griseus, UniProt P21448) (P21448 whole entry): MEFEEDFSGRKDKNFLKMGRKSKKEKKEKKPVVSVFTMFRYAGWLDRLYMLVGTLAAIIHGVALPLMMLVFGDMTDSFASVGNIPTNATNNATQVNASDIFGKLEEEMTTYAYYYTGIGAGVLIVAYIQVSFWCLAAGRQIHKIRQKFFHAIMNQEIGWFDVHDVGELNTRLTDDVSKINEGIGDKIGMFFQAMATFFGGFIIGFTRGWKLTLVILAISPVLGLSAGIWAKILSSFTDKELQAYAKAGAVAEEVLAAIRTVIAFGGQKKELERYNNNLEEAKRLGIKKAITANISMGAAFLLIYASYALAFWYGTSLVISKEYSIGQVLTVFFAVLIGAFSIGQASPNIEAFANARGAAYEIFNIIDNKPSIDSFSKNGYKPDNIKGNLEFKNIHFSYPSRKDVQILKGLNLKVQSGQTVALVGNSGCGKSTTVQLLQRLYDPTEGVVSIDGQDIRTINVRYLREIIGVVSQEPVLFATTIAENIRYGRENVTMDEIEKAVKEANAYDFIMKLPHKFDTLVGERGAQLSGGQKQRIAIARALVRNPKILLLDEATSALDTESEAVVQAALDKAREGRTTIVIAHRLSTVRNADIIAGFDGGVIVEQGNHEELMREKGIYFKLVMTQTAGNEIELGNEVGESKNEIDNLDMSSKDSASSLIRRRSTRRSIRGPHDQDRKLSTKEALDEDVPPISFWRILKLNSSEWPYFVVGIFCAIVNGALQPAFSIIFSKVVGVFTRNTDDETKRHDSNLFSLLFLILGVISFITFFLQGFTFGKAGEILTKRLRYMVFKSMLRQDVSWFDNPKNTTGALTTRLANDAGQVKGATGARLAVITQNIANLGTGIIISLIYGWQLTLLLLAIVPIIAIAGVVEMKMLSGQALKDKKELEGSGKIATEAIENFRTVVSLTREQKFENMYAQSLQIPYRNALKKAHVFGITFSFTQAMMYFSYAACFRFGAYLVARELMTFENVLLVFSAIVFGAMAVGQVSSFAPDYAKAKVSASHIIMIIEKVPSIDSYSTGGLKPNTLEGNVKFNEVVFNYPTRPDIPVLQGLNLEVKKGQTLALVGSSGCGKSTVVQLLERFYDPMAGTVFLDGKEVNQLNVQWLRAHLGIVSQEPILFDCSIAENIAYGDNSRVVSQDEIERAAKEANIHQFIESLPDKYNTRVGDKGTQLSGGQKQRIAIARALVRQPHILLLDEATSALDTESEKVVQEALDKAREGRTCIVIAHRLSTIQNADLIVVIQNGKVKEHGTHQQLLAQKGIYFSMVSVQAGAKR
smiles,measurement,setting,value
CS(=O)(=O)CCNCc1ccc(-c2ccc3ncnc(Nc4ccc(OCc5cccc(F)c5)c(Cl)c4)c3c2)o1 [lapatinib],EC50,BCRP [1],0.25 µM
same,effect on intracellular topotecan,[2],little effect
same,effect on topotecan-induced inhibition of colony formation,[3],little effect
same,"intracellular topotecan, % of steady-state accumulation in the absence of lapatinib",Pgp [4],220 ± 20%
same,effect on intracellular topotecan,AuxB1 cells,more modest
same,inhibition of BT474 tumor growth,"[5]; lapatinib 30 mg/kg oral twice daily 21 d, study 2, day 70",26%
same,inhibition of BT474 tumor growth,"[5]; lapatinib 60 mg/kg oral twice daily 21 d, study 1, day 56",79%
same,inhibition of BT474 tumor growth,"[5]; lapatinib 100 mg/kg oral twice daily 21 d, study 1, day 56",77%
same,inhibition of BT474 tumor growth,"[5]; lapatinib 100 mg/kg oral twice daily 21 d, study 2, day 70",82%
same,MTD and recommended phase II dose of lapatinib in the combination,[6]; for 28 days of a 28-day cycle,"1,250 mg/d"
same,Ki (lapatinib concentration producing 50% inhibition of topotecan CLNRF),[7],"2,349 ng/mL"
same,in vitro Ki for inhibition of Pgp,Pgp [8],"2,300 ng/mL"
same,Ki,Pgp [8]; read-out: in vitro Ki for inhibition of Pgp,3.9 µM
same,Ki,BCRP [9],0.0241 µM and 0.025 µM
same,Lapatinib AUC in mice,[10]; 30 mg/kg orally twice daily,5000 ng·h/mL
same,Lapatinib Cmax in mice,[10]; 30 mg/kg orally twice daily,1000 ng/mL
same,Lapatinib AUC in mice,[10]; 60 mg/kg orally twice daily,29000 ng·h/mL
same,Lapatinib Cmax in mice,[10]; 60 mg/kg orally twice daily,4000 ng/mL
same,Lapatinib AUC in mice,[10]; 100 mg/kg orally twice daily,94000 ng·h/mL
same,Lapatinib Cmax in mice,[10]; 100 mg/kg orally twice daily,9000 ng/mL
same,dose up to which lapatinib was well tolerated in phase I trials,[11]; diarrhea and rash dose limiting,"up to 1,800 mg/d"
same,AUC(0-t),"[12]; human, plasma, oral, Lapatinib AUC0–24 h, lapatinib + topotecan (day 8)",31700 ng·h/mL
same,AUC(0-t),"[12]; human, plasma, oral, Lapatinib AUC0–24 h, lapatinib alone (day 7)",23300 ng·h/mL
same,Tmax,"[12]; human, plasma, oral, Lapatinib Tmax, lapatinib alone (day 7), median and range",3 h
CC[C@@]1(O)C(=O)OCc2c1cc1n(c2=O)Cc2cc3c(CN(C)C)c(O)ccc3nc2-1 [topotecan],inhibition of BT474 tumor growth,"[5]; topotecan alone 6 mg/kg i.p. every 4 d × 3, study 2",53%
same,inhibition of BT474 tumor growth,"[5]; topotecan alone 10 mg/kg i.p. every 4 d × 3, study 1",66%
same,inhibition of BT474 tumor growth,"[5]; topotecan alone 10 mg/kg i.p. every 4 d × 3, study 2",65%
same,MTD and recommended phase II dose of topotecan in the combination,"[6]; i.v. on days 1, 8, 15 of a 28-day cycle",3.2 mg/m^2
same,MTD for topotecan alone,[11]; × 3,4 mg/m^2/wk
same,topotecan doses at which neutropenia is the principal toxicity,[11],above 4 mg/m^2/wk
same,increase of topotecan AUC0–24 h in the presence of lapatinib,[12]; (7–29%),18%
same,decrease of topotecan CLNRF when administered with lapatinib,[12]; (12–32%),22%
same,decrease in topotecan CLp when administered with lapatinib,[12]; day 8 versus day 1,16%
same,"Topotecan AUC0–24 h, day 8:day 1 ratio",[12]; [13],1.18 (1.07–1.29)
same,"Topotecan CLNRF, day 8:day 1 ratio",[12]; [13],0.78 (0.68–0.88)
same,"Topotecan CLp, day 8:day 1 ratio",[12]; [13],0.84 (0.76–0.92)
same,"Topotecan Cmax, day 8:day 1 ratio",[12]; [13],0.79 (0.66–0.92)
same,"Topotecan Vss, day 8:day 1 ratio",[12]; [13],0.99 (0.90–1.08)
same,"Topotecan t1/2, day 8:day 1 ratio",[12]; [13],1.01 (0.96–1.06)
same,AUC(0-t),"[12]; human, plasma, intravenous, Topotecan AUC0–24 h, lapatinib + topotecan (day 8)",510 ng·h/mL
same,AUC(0-t),"[12]; human, plasma, intravenous, Topotecan AUC0–24 h, topotecan alone (day 1)",432 ng·h/mL
same,Cmax,"[12]; human, plasma, intravenous, lapatinib + topotecan (day 8)",128 ng/mL
same,Cmax,"[12]; human, plasma, intravenous, topotecan alone (day 1)",162 ng/mL
same,half-life,"[12]; human, plasma, intravenous, Topotecan t1/2, lapatinib + topotecan (day 8)",4.35 h
same,half-life,"[12]; human, plasma, intravenous, Topotecan t1/2, topotecan alone (day 1)",4.3 h
same,Topotecan CLNRF,[12]; lapatinib + topotecan (day 8),4.11 (2.72–5.50) L/h/m^2
same,Topotecan Vss,[12]; lapatinib + topotecan (day 8),30.1(23.9–36.3) L/m^2
same,Topotecan CLp,[12]; lapatinib + topotecan (day 8),6.14 L/h/m^2
same,Topotecan CLp,"[12]; lapatinib + topotecan (day 8), listed as Topotecan",6.14 (4.27–8.01) L/h/m^2
same,topotecan CLNRF as % of CLp,[12]; topotecan administered alone,72%
same,Topotecan CLNRF,[12]; topotecan alone (day 1),5.25 (3.99–6.51) L/h/m^2
same,Topotecan Vss,[12]; topotecan alone (day 1),30.5 (26.5–34.5) L/m^2
same,Topotecan CLp,[12]; topotecan alone (day 1),7.28 L/h/m^2
same,Topotecan CLp,"[12]; topotecan alone (day 1), listed as Topotecan",7.28 (5.35–8.91) L/h/m^2
same,topotecan CLNRF as % of CLp,[12]; topotecan and lapatinib administered together,66%
